For orientation: EC50 means the midpoint of the concentration-response curve.

Experimental findings from patent US20240124451A1, “PHTHALAZINE DERIVATIVES USEFUL AS INHIBITORS OF NOD-LIKE RECEPTOR PROTEIN 3” (Merck Sharp & Dohme LLC, priority 2022, published 2024) are described below.

In the experiment the target is T1, NLRP3 inflammasome (Homo sapiens, UniProt Q96P20).
T1 construct: host or cells: THP-1 human monocytic cells, PMA-treated, stimulated with gramicidin
The experiment is described as follows: ASC-SPECK formation in THP-1 cells after gramicidin stimulation (NLRP3 inflammasome activation). The settings on record: PMA-treated human monocytic THP-1 cells, compound 1 h before 12.5 ug/ml gramicidin, 3 h, ASC SPECK imaging; read-out: EC50 (nM) for Examples that inhibit NLRP3 inflammasome activation. The format is cell-based. How it is done:
The ability of compounds to inhibit NLRP3 inflammasome activation was determined in vitro by monitoring formation of the ASC-SPECK in human monocytic THP-1 cells after stimulation. THP-1 cells (ATCC catalog #TIB-202) were maintained in complete growth media containing Roswell Park Memorial Institute RPMI (ATCC catalog #30-2001), 10% heat inactivated fetal bovine serum, 1× penicillin/streptomycin and 0.05 mM 2-mercaptoethanol. At the start of the assay, undifferentiated THP-1 cells were plated at a density of 20,000 cells per well in a 384-well plate (Poly-D-lysine coated Cell Carrier Ultra microplate, Perkin Elmer catalog #6057500) in complete growth media supplemented with 10 ng/ml phorbol 12-myristate 13-acetate (PMA; Sigma catalog #P8139), and then incubated overnight. The next day, media was replaced with assay media [RPMI (Gibco catalog #11875-093), 0.01% bovine serum albumin (BSA)]. Compounds were serially diluted in DMSO and then added to wells one hour prior to the addition of 12.5 ug/ml Gramicidin (Enzo Lifescience, catalog #ALX-350-233-M005). All incubations were carried out at 37° C. (5% CO2/95% air). Following a 3-hour treatment with gramicidin, cells are fixed with 4% paraformaldehyde and stored at 4° C. until immunofluorescence staining.
Immunofluorescence staining: Anti-ASC antibody (MBL catalog #D086-3) was desalted and labeled with Alexa 488 antibody labeling kit (Thermo catalog #A20181) prior to use as described below. After fixation, the following steps were carried out at room temperature. Cells were first permeabilized with 0.3% Triton X-100 in phosphate-buffered saline (PBS) for 15 minutes and then incubated in blocking buffer containing 5% goat serum, 0.3% tween-20 and 0.03% sodium azide in PBS for 1 hour. Cells were stained with a mixture of ASC-Alexa 488 antibody (diluted 1:200 in blocking buffer) and nuclear stain DRAQ5 (1:5000 in blocking buffer, Thermo catalog #62251) in blocking buffer for 1 hour. Following a wash with 0.3% Tween-20 in PBS, plates were imaged with an Opera Phenix High Content Screening System. The number of DRAQ5 positive cells containing ASC SPECKS were quantified in each well.
Data analysis: EC50 values were calculated by standard curve-fitting analysis using an internally developed program in TIBCO Spotfire software.

T1 sequence (Q96P20 whole entry): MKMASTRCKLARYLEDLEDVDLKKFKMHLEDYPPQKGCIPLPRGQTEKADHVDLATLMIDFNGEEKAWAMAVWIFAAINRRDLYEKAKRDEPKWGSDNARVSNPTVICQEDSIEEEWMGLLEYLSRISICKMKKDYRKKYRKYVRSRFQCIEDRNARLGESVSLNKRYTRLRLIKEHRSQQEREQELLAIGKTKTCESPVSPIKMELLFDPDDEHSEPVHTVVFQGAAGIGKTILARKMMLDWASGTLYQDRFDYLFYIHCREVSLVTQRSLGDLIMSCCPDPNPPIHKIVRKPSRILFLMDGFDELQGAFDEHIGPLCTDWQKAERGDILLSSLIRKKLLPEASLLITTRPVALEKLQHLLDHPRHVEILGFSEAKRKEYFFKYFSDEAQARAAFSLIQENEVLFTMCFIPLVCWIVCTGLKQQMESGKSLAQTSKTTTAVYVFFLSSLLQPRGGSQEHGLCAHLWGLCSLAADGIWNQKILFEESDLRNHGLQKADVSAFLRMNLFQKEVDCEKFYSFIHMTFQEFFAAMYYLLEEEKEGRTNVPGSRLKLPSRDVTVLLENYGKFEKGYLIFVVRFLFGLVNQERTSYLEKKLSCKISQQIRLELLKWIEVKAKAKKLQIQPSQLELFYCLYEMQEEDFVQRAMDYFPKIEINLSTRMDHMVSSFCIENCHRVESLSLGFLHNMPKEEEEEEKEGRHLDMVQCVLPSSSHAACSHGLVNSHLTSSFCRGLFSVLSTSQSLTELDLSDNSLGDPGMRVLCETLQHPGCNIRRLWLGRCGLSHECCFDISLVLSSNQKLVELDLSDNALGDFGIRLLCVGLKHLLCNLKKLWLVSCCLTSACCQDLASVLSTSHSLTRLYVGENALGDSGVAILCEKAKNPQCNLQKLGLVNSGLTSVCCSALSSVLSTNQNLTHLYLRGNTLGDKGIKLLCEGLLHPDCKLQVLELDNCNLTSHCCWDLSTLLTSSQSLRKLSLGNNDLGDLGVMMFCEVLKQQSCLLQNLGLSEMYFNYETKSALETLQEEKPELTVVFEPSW

Turning to `C[C@@H]1CN(c2nnc(-c3ccc(C(F)(F)F)cc3O)c3cnncc23)C[C@H](C)O1` [Example 9, 2-(4-((cis)-2,6-dimethylmorpholino)pyridazino[4,5-d]pyridazin-1-yl)-5-(trifluoromethyl)phenol], the EC50 amounted to 80 nM.
As for `Cc1cccc2c(-c3ccc(C(F)(F)F)cc3O)nnc(N3C[C@@H](C)O[C@@H](C)C3)c12` [Example 14, 2-(4-((cis)-2,6-dimethylmorpholino)-5-methylphthalazin-1-yl)-5-(trifluoromethyl)phenol], the EC50 came out at 734 nM.
For the compound `C[C@@H]1CN(c2nnc(-c3ccc(C(F)(F)F)cc3O)c3ccncc23)C[C@H](C)O1` [Example 4, 2-(4-((cis)-2,6-dimethylmorpholino)pyrido[3,4-d]pyridazin-1-yl)-5-(trifluoromethyl)phenol], the EC50 amounted to 82 nM.
The result for `C[C@@H]1CN(c2nnc(-c3ccc4occc4c3)c3ccncc23)C[C@H](C)O1` [Example 11, (cis)-4-(1-(benzofuran-5-yl)pyrido[3,4-d]pyridazin-4-yl)-2,6-dimethylmorpholine] reads 750 nM; that for `C[C@]1(O)CCN(c2nnc(-c3ccc(C(F)(F)F)cc3O)c3ccc(C(F)F)nc23)C1` [Example 56], 90 nM.
In the case of `C[C@@H]1CN(c2nnc(-c3ccc(C(F)(F)F)cc3O)c3cnccc23)C[C@H](C)[C@]1(C)O` [Example 17, (3S,4s,5R)-1-(4-(2-hydroxy-4-(trifluoromethyl)phenyl)pyrido[3,4-d]pyridazin-1-yl)-3,4,5-trimethylpiperidin-4-ol], the EC50 is 201 nM.
For the compound `O=C1CCC2(CCN(c3nnc(-c4ccc(C(F)(F)F)cc4O)c4cccnc34)CC2)O1` [Example 42, 8-(5-(2-hydroxy-4-(trifluoromethyl)phenyl)pyrido [2,3-d]pyridazin-8-yl)-1-oxa-8-azaspiro[4.5]decan-2-one], the EC50 was 952 nM.
The figure for `C[C@@H]1CN(c2nnc(-c3ccc(C(F)(F)F)cc3OC(F)F)c3ccncc23)C[C@H](C)O1` [Example 7, (cis)-4-(1-(2-(difluoromethoxy)-4-(trifluoromethyl)phenyl)pyrido[3,4-d]pyridazin-4-yl)-2,6-dimethylmorpholine] is 570 nM.
In the case of `Oc1cc(C(F)(F)F)ccc1-c1nnc(N2CCC(O)(C(F)(F)F)C2)c2ncccc12` (racemic) [Example 27, (R and S)-1-(5-(2-hydroxy-4-(trifluoromethyl)phenyl)pyrido [2,3-d]pyridazin-8-yl)-3-(trifluoromethyl)pyrrolidin-3-ol], the EC50 came to 1230 nM.
With `C[C@@H]1CN(c2nnc(-c3ccc(C(F)(F)F)cc3O)c3cccnc23)C[C@H](C)C1(F)F` [Example 33, 2-(8-((cis)-4,4-difluoro-3,5-dimethylpiperidin-1-yl)pyrido[2,3-d]pyridazin-5-yl)-5-(trifluoromethyl)phenol], the EC50 worked out at 221 nM.
The figure for `Oc1cc(C(F)(F)F)ccc1-c1nnc(N2CCC3(CCOC3)CC2)c2ncccc12` [Example 31, 2-(8-(2-oxa-8-azaspiro[4.5]decan-8-yl)pyrido[2,3-d]pyridazin-5-yl)-5-(trifluoromethyl)phenol] is 915 nM; for `CC1CN(c2nnc(-c3ccc(C(F)(F)F)cc3O)c3cccnc23)CC(CO)O1` (single isomer, unassigned) [Example 51, 2-(8-((2R,6R or 2S,6S)-2-(hydroxymethyl)-6-methylmorpholino)pyrido[2,3-d]pyridazin-5-yl)-5-(trifluoromethyl) phenol] it is 65 nM; for `CC(=O)N1CCC2(CCN(c3nnc(-c4ccc(C(F)(F)F)cc4O)c4cccnc34)CC2)C1` [Example 35, 1-(8-(5-(2-hydroxy-4-(trifluoromethyl)phenyl)pyrido [2,3-d]pyridazin-8-yl)-2,8-diazaspiro[4.5]decan-2-yl)ethan-1-one] it is 420 nM.
